Experimental data: ChEMBL document CHEMBL1201862, “PubChem BioAssay data set” (2004)
Activity calls are given as the source filed them.

Tests used:
[1] = activation of miR-122 Renilla sensor silencing – cell-based, Huh7 psiCHECK-miR122, Renilla luciferase, cherry-picked, dose response (AID 651956); assay type: functional;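 note: huh7 hepatoma cells stably carrying a psiCHECK-2 miR-122 sensor plasmid; renilla luciferase signal reporting endogenous miR-122 activity after 48 h compound exposure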
[2] = biological target: T1, Insulin-degrading enzyme (Homo sapiens, UniProt P14735); experiment: cellular IDE activation of Abeta substrate cleavage – fluorescence polarization, HEK cells, dose response (AID 588439); assay type: functional, cell-based
T1 sequence (P14735 whole entry): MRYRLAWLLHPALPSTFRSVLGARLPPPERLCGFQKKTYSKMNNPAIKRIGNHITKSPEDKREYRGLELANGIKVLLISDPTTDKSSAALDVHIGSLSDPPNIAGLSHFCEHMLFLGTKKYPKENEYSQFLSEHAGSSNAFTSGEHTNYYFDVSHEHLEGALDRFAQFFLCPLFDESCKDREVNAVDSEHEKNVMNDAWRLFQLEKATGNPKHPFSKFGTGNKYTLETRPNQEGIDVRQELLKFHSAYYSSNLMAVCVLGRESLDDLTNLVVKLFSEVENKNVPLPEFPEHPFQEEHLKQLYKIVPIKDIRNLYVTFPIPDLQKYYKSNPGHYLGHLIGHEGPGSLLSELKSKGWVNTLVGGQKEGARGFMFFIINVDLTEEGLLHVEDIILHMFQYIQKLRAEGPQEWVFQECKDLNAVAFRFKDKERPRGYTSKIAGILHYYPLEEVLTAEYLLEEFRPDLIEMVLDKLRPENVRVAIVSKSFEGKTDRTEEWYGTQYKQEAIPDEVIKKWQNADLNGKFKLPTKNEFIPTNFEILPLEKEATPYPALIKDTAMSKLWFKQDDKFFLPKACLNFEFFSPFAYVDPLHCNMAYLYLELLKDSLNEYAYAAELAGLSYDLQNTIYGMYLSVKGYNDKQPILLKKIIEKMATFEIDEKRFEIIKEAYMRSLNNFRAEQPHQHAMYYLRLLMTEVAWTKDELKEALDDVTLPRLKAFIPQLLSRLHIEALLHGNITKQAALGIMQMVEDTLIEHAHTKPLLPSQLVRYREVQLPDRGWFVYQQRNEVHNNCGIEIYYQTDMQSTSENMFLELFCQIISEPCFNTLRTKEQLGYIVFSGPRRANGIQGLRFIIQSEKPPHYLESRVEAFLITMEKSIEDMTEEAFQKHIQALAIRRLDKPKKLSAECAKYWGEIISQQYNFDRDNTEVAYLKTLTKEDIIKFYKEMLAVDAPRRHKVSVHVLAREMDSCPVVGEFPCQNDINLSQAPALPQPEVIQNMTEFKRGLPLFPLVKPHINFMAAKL

[3] = test system: HEK293; experiment: optical interference in Abeta FP readout, dose response, artefact control for IDE activator project, biochemical, fluorescence polarization (AID 588442); assay type: functional, cell-based; conditions: Homo sapiens
[4] = viability loss in THP-1 monocytes – THP-1 cells, cytotoxicity control for Vif-APOBEC3G degradation inhibitor project, dose response (AID 1117359); assay type: functional; conditions: THP-1
[5] = general mammalian cell viability loss – activator set, cherry-pick, cytotoxicity control for miR-122 modulator project, dose response (AID 720690); assay type: functional, cell-based;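 note: HEK293T human cells scored for general mammalian cytotoxicity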
[6] = biological target: T2, DNA repair protein RAD52 homolog (Homo sapiens, UniProt P43351); assay type: functional, biochemical
T2 sequence (P43351 whole entry): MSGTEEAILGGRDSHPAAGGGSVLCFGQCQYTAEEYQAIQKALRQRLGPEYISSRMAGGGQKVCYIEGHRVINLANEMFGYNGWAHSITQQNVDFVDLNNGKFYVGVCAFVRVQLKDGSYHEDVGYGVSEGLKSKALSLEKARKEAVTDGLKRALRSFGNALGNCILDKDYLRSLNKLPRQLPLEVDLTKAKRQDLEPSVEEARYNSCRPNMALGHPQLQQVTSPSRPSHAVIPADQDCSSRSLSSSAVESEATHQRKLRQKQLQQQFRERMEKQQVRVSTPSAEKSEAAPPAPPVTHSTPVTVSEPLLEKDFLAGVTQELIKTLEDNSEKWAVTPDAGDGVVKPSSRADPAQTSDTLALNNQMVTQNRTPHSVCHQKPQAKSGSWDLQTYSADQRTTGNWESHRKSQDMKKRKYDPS

[7] = biological target: T1, Insulin-degrading enzyme; experiment: recombinant IDE activation, cell-free – biochemical, fluorescence polarization, counter-screen for IDE activator project, dose response (AID 588681)
[8] = test system: HEK293; experiment: membrane integrity loss in HEK cells – cell-based, fluorescence, cytotoxicity control for IDE activator project, dose response (AID 588440); assay type: functional; conditions: Homo sapiens;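 note: cytotoxicity by LDH release measuring loss of membrane integrity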
[9] = biological target: T3, Coagulation factor XII (Homo sapiens, UniProt P00748); assay type: functional;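 note: activated factor XIIa alpha cleaving a fluorogenic AMC peptide substrate; inhibitor potency from loss of enzyme activity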
T3 sequence (P00748 whole entry): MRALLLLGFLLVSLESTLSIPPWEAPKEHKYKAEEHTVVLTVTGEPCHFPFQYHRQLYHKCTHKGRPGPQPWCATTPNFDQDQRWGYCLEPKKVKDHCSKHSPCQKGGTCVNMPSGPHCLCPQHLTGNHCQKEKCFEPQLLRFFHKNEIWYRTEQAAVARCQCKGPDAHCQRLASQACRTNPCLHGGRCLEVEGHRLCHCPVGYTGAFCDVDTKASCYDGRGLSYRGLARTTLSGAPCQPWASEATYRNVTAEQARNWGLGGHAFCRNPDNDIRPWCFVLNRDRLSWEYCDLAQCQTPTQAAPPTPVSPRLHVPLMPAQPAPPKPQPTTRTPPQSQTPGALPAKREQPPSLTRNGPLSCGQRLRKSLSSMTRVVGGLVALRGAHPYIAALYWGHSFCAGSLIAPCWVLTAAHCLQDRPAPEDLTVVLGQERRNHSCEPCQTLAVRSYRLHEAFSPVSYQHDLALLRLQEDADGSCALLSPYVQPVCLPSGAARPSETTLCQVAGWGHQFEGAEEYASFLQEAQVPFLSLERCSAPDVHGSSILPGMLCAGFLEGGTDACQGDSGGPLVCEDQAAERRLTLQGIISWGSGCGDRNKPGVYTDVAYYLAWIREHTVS

[10] = microbe, parasite or virus in culture; assay type: functional; conditions: Mycobacterium tuberculosis
[11] = biological target: T4, Ubiquitin-conjugating enzyme E2 N (Homo sapiens, UniProt P61088); assay type: functional
T4 sequence (P61088 whole entry): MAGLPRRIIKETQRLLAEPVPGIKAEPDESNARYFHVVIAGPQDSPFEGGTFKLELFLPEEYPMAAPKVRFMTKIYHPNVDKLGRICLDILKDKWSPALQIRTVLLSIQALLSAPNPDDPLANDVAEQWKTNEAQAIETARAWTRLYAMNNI

[12] = biological target: T5, Bcl-2-related protein A1 (Mus musculus, UniProt Q07440); assay type: functional;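 note: confirmatory dose–response counterscreen on Bfl-1, used to check hits from a UBC13 polyubiquitin inhibitor campaign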
T5 sequence (Q07440 whole entry): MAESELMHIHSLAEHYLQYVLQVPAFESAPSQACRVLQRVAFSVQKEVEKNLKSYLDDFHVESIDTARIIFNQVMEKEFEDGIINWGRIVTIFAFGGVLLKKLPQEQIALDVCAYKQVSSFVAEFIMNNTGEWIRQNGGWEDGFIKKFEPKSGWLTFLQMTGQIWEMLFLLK

[13] = biological target: T4, Ubiquitin-conjugating enzyme E2 N; assay type: functional; remark: listed apart in the source
[14] = biological target: T6, Apoptotic protease-activating factor 1 (Homo sapiens, UniProt O14727); assay type: functional
T6 sequence (O14727 whole entry): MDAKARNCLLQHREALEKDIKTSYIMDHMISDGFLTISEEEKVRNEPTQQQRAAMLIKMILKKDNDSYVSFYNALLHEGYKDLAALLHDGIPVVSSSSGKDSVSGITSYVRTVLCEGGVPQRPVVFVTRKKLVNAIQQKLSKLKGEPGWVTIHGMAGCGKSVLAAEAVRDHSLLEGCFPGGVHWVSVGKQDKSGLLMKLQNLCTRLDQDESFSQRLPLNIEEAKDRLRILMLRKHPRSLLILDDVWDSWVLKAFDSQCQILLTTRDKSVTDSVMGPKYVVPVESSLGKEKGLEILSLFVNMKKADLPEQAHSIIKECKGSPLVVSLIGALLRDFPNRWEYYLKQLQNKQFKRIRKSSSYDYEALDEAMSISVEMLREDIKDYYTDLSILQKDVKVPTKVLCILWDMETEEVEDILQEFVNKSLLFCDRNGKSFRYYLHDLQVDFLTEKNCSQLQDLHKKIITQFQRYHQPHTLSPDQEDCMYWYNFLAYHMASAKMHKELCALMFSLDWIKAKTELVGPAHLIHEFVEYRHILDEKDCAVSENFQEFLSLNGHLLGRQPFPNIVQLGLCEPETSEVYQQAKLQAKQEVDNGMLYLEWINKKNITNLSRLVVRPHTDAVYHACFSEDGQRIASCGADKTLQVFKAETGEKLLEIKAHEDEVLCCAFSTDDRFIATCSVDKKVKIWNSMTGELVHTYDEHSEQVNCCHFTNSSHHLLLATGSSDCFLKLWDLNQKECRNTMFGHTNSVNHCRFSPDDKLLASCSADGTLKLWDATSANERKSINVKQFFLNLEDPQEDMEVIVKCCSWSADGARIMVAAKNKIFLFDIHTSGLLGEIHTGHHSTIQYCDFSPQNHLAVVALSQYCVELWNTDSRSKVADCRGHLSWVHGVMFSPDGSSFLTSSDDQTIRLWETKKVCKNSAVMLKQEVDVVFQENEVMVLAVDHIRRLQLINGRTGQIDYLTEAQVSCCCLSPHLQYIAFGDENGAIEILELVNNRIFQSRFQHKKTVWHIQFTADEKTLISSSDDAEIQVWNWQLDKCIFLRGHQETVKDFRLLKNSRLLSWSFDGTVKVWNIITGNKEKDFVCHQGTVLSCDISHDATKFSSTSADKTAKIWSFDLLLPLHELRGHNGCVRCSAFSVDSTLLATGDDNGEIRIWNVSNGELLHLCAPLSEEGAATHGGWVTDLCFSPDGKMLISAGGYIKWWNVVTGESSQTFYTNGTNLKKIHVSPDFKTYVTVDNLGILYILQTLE

[15] = HEK-293T viability loss, compound-treated – cell-based, uHTS hits, cytotoxicity control for B/T-cell NF-kB inhibitor project, dose response (AID 489019); assay type: functional;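 note: IC50 reflects cytotoxicity as loss of cell viability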
[16] = test system: INS1; experiment: INS-1E survival protection against cytokine death – cell-based, luminescence, retest, dose response (AID 449756); assay type: functional; conditions: Rattus norvegicus;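 note: cell death triggered by IL-1 beta plus TNF-alpha plus IFN-gamma mixture; protective hits raise ATP signal compared with cytokine alone wells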
[17] = Luminescence Cell-Based Dose Retest to Confirm Inhibitors of Cancer Stem Cells. [Related pubchem assays (depositor defined):AID2717, AID2721]; assay type: functional; conditions: Homo sapiens
[18] = test system: Jurkat; experiment: blockers of NF-kB activation in T cells – Jurkat, luciferase reporter, luminescence, B- and T-cell, dose response (AID 489004); assay type: functional, cell-based; conditions: Homo sapiens;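 note: NF-kB luciferase reporter Jurkat cells stimulated with PMA plus ionomycin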
[19] = fluconazole-exposed Candida albicans growth modulators – fluorescence, retest, confirmation (AID 2467); assay type: functional, cell-based
[20] = NIH-3T3 fibroblast cytotoxicity, dose response, cytotoxicity control, cell-based, fluorescence, Alamar Blue, secondary assay (AID 2327); assay type: functional;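 note: NIH-3T3 mouse fibroblasts cultured with fluconazole at 8 µg/mL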
[21] = biological target: DNA dC->dU-editing enzyme APOBEC-3A (Homo sapiens, UniProt P31941); experiment: SAR analysis of small molecule inhibitors of APOBEC3A DNA Deaminase via a fluorescence-based single-stranded DNA deaminase assay.; assay type: functional; conditions: read-out: IC50_Mean
[22] = biological target: DNA dC->dU-editing enzyme APOBEC-3G (Homo sapiens, UniProt Q9HC16); experiment: inhibition of APOBEC3G ssDNA deamination – biochemical, fluorescence, single-stranded DNA substrate, SAR follow-up (AID 602136); assay type: functional; conditions: read-out: IC50_Mean
[23] = Luminescence Cell-Based Dose Confirmation HTS to Identify Inhibitors of Platelet Dense Granule Release. [Related pubchem assays: 1663 (Primary HTS), 1678 (Summary of Project)]; assay type: functional
[24] = biological target: Luciferin 4-monooxygenase (Photinus pyralis, UniProt P08659); experiment: inhibition of purified Photinus pyralis luciferase – biochemical, luminescence, dose response (AID 1891)
[25] = A Cell Based Secondary Assay To Explore Cytotoxicity of Compounds that Sensitize Mycobacterium Tuberculosis to Beta-Lactam Antibiotics.; assay type: functional

Chain of DNA dC->dU-editing enzyme APOBEC-3G (Q9HC16 whole entry): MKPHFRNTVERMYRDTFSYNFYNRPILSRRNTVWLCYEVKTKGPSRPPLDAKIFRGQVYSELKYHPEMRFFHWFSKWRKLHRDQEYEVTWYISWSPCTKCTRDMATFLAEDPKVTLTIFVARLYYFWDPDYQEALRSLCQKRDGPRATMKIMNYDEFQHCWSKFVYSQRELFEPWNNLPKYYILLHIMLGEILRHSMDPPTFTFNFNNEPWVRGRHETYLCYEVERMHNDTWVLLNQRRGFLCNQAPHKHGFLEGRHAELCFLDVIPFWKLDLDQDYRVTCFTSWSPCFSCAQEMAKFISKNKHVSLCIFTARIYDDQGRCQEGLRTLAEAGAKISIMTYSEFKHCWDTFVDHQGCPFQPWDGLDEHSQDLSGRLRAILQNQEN
Chain of DNA dC->dU-editing enzyme APOBEC-3A (P31941 whole entry): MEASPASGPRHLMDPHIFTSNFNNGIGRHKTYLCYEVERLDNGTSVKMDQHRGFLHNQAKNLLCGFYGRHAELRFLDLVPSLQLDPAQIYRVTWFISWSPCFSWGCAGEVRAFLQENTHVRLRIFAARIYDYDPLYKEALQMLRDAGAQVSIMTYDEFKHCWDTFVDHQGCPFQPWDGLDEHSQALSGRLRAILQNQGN
Chain of Luciferin 4-monooxygenase (P08659 whole entry): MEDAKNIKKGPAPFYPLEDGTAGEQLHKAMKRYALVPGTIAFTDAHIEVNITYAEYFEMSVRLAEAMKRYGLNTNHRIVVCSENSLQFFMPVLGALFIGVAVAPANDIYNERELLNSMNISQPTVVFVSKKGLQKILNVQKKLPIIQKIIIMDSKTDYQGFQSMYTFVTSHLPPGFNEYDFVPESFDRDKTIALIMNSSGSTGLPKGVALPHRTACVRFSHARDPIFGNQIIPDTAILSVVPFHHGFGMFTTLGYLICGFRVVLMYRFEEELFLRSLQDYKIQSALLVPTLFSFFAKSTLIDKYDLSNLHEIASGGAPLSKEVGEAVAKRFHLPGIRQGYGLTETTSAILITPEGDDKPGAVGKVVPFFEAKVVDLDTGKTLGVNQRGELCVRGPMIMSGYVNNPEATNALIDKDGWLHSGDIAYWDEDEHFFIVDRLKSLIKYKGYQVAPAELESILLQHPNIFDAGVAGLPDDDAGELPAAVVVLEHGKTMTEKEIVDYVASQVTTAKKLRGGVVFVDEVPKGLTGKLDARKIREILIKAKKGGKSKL

Row | Compound | EC50 [2] | EC50 [3] | AC50 [6] | EC50 [7] | IC50 [8] | IC50 [13] | IC50 [14] | IC50 [21] | IC50 [22] | other results
1 | CN(C)CCNc1ncnc2c1sc1nc(-c3ccccc3)c3c(c12)CCCC3 | 21.7 µM (inactive) | > 54.7 µM (inactive) | 6.93 µM (active) | > 54.7 µM (inactive) | 10.4 µM (inactive) | 13 µM (active) |  |  |  | AC50 [1]: 19.4 µM (active); CC50 [4]: 31.1 µM (active); AC50 [5]: 16.2 µM (active); IC50 [9]: > 50 µM (inactive); CC50 [10]: 7.38 µM (active); IC50 [11]: 7.72 µM (active); IC50 [12]: > 20 µM (inactive)
2 | CCCCCc1ccc(OCCCC[n+]2cccc(C)c2)c(CCCCC)c1 |  |  | 15.1 µM (active) |  |  | > 20 µM (inactive) | 28.5 µM (active) |  |  | IC50 [15]: 68.8 µM (inactive); AC50 [16]: 1.64 µM (active); AC50 [17]: 0.694 µM (active); IC50 [18]: 4.68 µM (active); EC50 [19]: 0.755 µM (active); EC50 [20]: > 150 µM (inactive)
3 | Cn1c(SCC(N)=O)nnc1-c1sc2cc(Cl)ccc2c1Cl |  |  |  |  |  |  |  | > 99 µM (inactive) | > 99 µM (inactive) | 
4 | CC(=O)Nc1ccc(NC(=O)COC(=O)c2[nH]nc3ccccc23)cc1 | > 54.7 µM (inactive) | > 54.7 µM (inactive) |  | > 54.7 µM (inactive) | > 89.2 µM (inactive) |  |  |  |  | 
5 | O=C1N/C(=C\c2ccc(O)cc2)C(=O)c2ccccc21 |  |  |  |  |  |  | 3.21 µM (active) |  |  | EC50 [23]: 1.15 µM (active); EC50 [24]: 0.661 µM (active); CC50 [25]: > 40 µM (active)
6 | CC(C)Cn1c(=O)c2cc(Cl)ccc2n2c(SCc3ccc(Cl)cc3)nnc12 |  |  |  |  |  |  |  | > 99 µM (inactive) | > 99 µM (inactive) | 
